ChEMBL document CHEMBL1142450, “3-(Imidazolyl methyl)-3-aza-bicyclo[3.1.0]hexan-6-yl)methyl ethers: a novel series of mGluR2 positive allosteric modulators” (Bioorg Med Chem Lett, 2008)

How the values were obtained:
Assay type in all cases: ADME, organism-based
[1] = Ratio of drug level in brain to plasma in Sprague-Dawley rat at 10 mg/kg, sc; design: dose 10 mg/kg, route subcutaneous; settings: brain and plasma, read-out: BPR
[2] = Oral bioavailability in Sprague-Dawley rat at 5 mg/kg; settings: in vivo
[3] = Fraction absorbed in Sprague-Dawley rat at 5 mg/kg, po; design: dose 5 mg/kg, route oral; settings: in vivo, read-out: Fabs

Kp [1]	bioavailability [2] [%]	Fa [3] [%]	Structure (SMILES)
2	< 2	5	Cn1c(CN2C[C@@H]3C(COc4ccccc4)[C@@H]3C2)nc2ccccc21 (stereo partly drawn)
	79	84	Cn1c(CN2C[C@@H]3C(COc4cccc(Cl)c4)[C@@H]3C2)nc2ncccc21 (stereo partly drawn)
	20	72	Cn1c(CN2C[C@@H]3C(COc4ccc(Cl)cn4)[C@@H]3C2)nc2ccccc21 (stereo partly drawn)
	27		Cn1c(CN2C[C@@H]3C(COc4ccc(C(F)(F)F)cn4)[C@@H]3C2)nc2ccccc21 (stereo partly drawn)
